Results on one molecule are retold here after patent US20230183265A1, “Crystal Form of Macrocyclic Tyrosine Kinase Inhibitor and Preparation Method therefor” (SHANDONG XUANZHU PHARMA CO., LTD., priority 2020, published 2023).

The subject of experiment [1] is Ba/F3 ETV6-NTRK3-G623R cell line. The experiment is described as follows: In vitro cytological inhibitory activity (CelltiterGlo assay). The settings on record: Mus musculus, BaF3, 72 hours. It counts as cell-based. The source says: (§1) Test compound: the compound represented by Formula (I), prepared according to the method in Embodiment 1.
(§2) The meanings of cell lines used in the experiment are as follows: • Ba/F3 LMNA-NTRK1-G595R cell line: • A stably expressed cell line of Ba/F3 cells transfected with LMNA-NTRK1 G595R; and • Ba/F3 ETV6-NTRK3-G623R cell line: • A stably expressed cell line of Ba/F3 cells transfected with ETV6-NTRK3-G623R.
(§3) Experimental Method (CelltiterGlo Assay)
(§4) 1. Cell Culture and Inoculation
(§5) All cells were suspension cells, and all culture mediums were RPM1-1640+10% FBS. The cells were tested in a logarithmic growth phase.
(§6) The cells in the logarithmic growth phase were collected and counted by a […]. A trypan blue exclusion method was used to detect the cell activity, to ensure that the cell activity was above 90%. It was adjusted to the appropriate concentration, and 90 μL of cell suspension was respectively added to a 96-well plate.
(§7) 2. Preparation of Test Compound
(§8) “M” means “mol/L”, “mM” means “mmol/L”, and “μM” means “μmol/L”. […]
(§9) A CellTiter-Glo luminescent cell viability assay (CTG) reagent was molten and a cell plate was balanced to a room temperature for 30 minutes. […] The light signal value was read by a multifunctional microplate reader.
(§10) 1) Inhibition rate (%)=(DMSO solvent control well reading−test compound well reading)/(DMSO solvent control well reading−blank well reading)×[…]; and […]

Experiment [2] relates to Ba/F3 LMNA-NTRK1-G595R cell line. Described as above. The settings on record: Mus musculus, BaF3, 72 hours. It counts as cell-based.
From the text: as §1, §2, §3, §4, §5, §6, §7, §8, §9, §10

The subject of experiment [3] is Ba/F3 SLC34A2/ROS1-G2032R cell line. Nature of the experiment: In vitro cytological inhibitory activity (Celltiter-Glo assay). It counts as cell-based. The settings on record: Mus musculus, BaF3, 72 hours. The procedure:
as §1
The meanings of cell lines used in the experiment are as follows: • Ba/F3 SLC34A2/ROS1-G2032R cell line: • A stably expressed cell line of Ba/F3 cells transfected with SLC34A2/ROS1-G2032R.
Experimental Method (Celltiter-Glo Assay)
as §4, §5
The cells in the logarithmic growth phase were collected and counted by a platelet counter. A trypan blue exclusion method was used to detect the cell activity, as to ensure that the cell activity was above 90%. It was adjusted to the appropriate concentration, and 90 μL of cell suspension was respectively added to a 96-well plate.
as §7
2.2 Preparation of Working Stock Solution of Test Compound […]
A CTG reagent was molten and a cell plate was balanced to a room temperature for 30 minutes. […] The light signal value was read by a multifunctional microplate reader.
1) Cell survival rate (%)=(test compound well reading−blank well reading)/(DMSO solvent control well reading−blank well reading)×100%; and […]

The test system of experiment [4] is xenograft tumor of BaF3 LMNA-NTRK1-G595R stably transfected cell line. The experiment is described as follows: Efficacy study on BaF3 LMNA-NTRK1-G595R stable cell strain subcutaneous xenograft model. The settings on record: bid, p.o., 7 days. The experiment is classed as in vivo, mouse (NOD-SCID). The protocol:
Test substance: the compound represented by Formula (I), prepared according to the method in Embodiment 1.
A BaF3LMNA-NTRK1-G595R stably transfected cell line resuspended in a RPM11640 serum-free medium was inoculated subcutaneously on a right scapula of a mouse (nonobese diabetic-severe combined immunodeficiency disease (NOD-SCID)) at 1×10^6 cells/mouse (0.1 ml/mouse).
3.2 Grouping Administration
While the average tumor volume was about 500 mm^3, it was randomly divided into a vehicle group, a compound represented by Formula (I) (10/5/3/1 mg/kg, bid) group and a LOXO-195 group (30/10/3 mg/kg, bid).
3.3 Experimental Evaluation Index
1) Tumor growth inhibition rate TGI (%) • TGI (%)=(1−T/C)×100%
2) Tumor volume ratio of Treatment group/Control group TIC (%) • TIC (%)=TRTV/CRTV×100% • RTV=Vt/V0, herein Vt is the tumor volume on the t-th day after grouping, and V0 is the tumor volume on the day of grouping; TRTV: the average relative tumor volume in the administration group; and CRTV: the average relative tumor volume in the vehicle control group.

Take `C[C@@H]1COc2ncc(F)cc2[C@H]2CCCN2c2ccc3ncn(c3n2)C(=O)N1` [Compound represented by Formula (I), (2^2R, 6R)-3^5-fluoro-6-methyl-1^3H-4-oxa-7-aza-1(5,3)-imidazo[4,5-b]pyridina-3(3,2)-pyridina-2(1,2)-pyrrolidina cyclooctaphan-8-one]: the IC50 in experiment [1] was 1 nM; in experiment [2], 0.6 nM; in experiment [3], 2.3 nM. Also, the T/C in experiment [4] (experiment 1, 3 mg/Kg) was 73.2%; in experiment [4] (experiment 2, 1 mg/Kg), 53.7%; in experiment [4] (experiment 2, 5 mg/Kg), 0%; in experiment [4] (experiment 2, 10 mg/Kg), 0%. The TGI in experiment [4] (experiment 1, 3 mg/Kg) is reported as 26.8%; in experiment [4] (experiment 2, 1 mg/Kg) it was 46.3%; in experiment [4] (experiment 2, 5 mg/Kg) it was 100%; in experiment [4] (experiment 2, 10 mg/Kg) it was 100%.
